# Values quoted from earlier work as cited in patent US20170106110A1, “ALLERGEN REDUCING COMPOSITION, SPRAY AGENT INCLUDING THE SAME AND SURFACE TREATMENT AGENT INCLUDING THE SAME, ALLERGEN REDUCING METHOD, ALLERGEN REDUCING TEXTILE STRUCTURE AND ALLERGEN REDUCING ARCHITECTURAL INTERIOR MATERIAL” (SC ENVIRONMENTAL SCIENCE CO., LTD., priority 2014, published 2017).
# Settings: rat
substance,measurement,value
zinc gluconate,value of acute oral toxicity,"exceeds 5,000 mg/kg"
